Source: PMC12461331, “Screening of Medicines for Malaria Venture Open Boxes Identifies Potent SARS-CoV‑2 Papain-like Protease (PL^pro) Inhibitors” (ACS Omega, 2025)
≈ marks a conversion by molar mass, not a printed value. Where “and” joins values, the source holds several entries; their conditions need not be identical. Equal entries are not always repeated. Where two headings read alike, the source gives them in different places.

Key:
[1] = tested on: HeLa-ACE2 cells
[2] = tested on: HeLa-ACE2 cells; test: cells; details: Homo sapiens
[3] = Parallel artificial membrane permeability assay (PAMPA)
[4] = Mouse liver microsomal stability assay; details: CD1, mouse, pH 7.4
[5] = tested on: SARS-CoV-2; test: microbe, parasite or virus in culture; details: for AC50: Severe acute respiratory syndrome coronavirus 2, HeLa-ACE2, read-out: Log AC50 (converted)
[6] = tested on: uninfected HeLa-ACE2 cells; details: Hela-ACE2 Uninfected Cell Toxicity; for qAC50: relation in column qAC50 Mode, unit not given
[7] = Human liver microsomal stability assay; details: human; for half-life at 0.5 μM: pH 7.4
[8] = Kinetic solubility; details: 25 °C, kinetic from dmso stock
[9] = tested on: SARS-CoV-2; details: for CoV2 Efficacy (delta S0:Sinf): HeLa-ACE2; for Data Mode: Hela-ACE2 % Positive SARS-CoV-2; for S0 / Sinf / nHill: Hela-ACE2 % Positive SARS-CoV-2, curve fit
[10] = in vitro; details: human, uninfected HeLa-ACE2 cells
[11] = Plasma stability; details: female, BALB/c, mouse, plasma, pH 7.4
[12] = Chromatographic distribution coefficient (eLogD7.4); details: pH 7.4
[13] = female, BALB/c, mouse, 1 h, pH 7.4
[14] = in vitro; details: CD1, mouse, microsomes, pH 7.4
[15] = physchem; details: 25 °C, kinetic from dmso stock
[16] = target: PL^pro (Severe acute respiratory syndrome coronavirus 2, UniProt P0DTD1); details: 20 μM compound, 5 μM enzyme, average of triplicates with SD
[17] = in vitro; details: PAMPA
[18] = physchem; details: pH 7.4
[19] = in vitro; details: human, microsomes, pH 7.4
[20] = target: SARS-CoV-2 PL^pro (Severe acute respiratory syndrome coronavirus 2, UniProt P0DTD1); assay type: biochemical
[21] = Hela-ACE2 CoV-2 Total Cell count
[22] = Hela-ACE2 CoV-2 Total Cell count, curve fit
[23] = HeLa-ACE2, read-out: HeLa-ACE2 Total cells EC50
[24] = Severe acute respiratory syndrome coronavirus 2, HeLa-ACE2, read-out: SARS-CoV-2 EC50, HeLa-ACE2 cells, average of triplicates
[25] = Severe acute respiratory syndrome coronavirus 2, HeLa-ACE2, read-out: qAC50, Hela-ACE2 % Positive SARS-CoV-2, relation in column qAC50 Mode, unit inferred
[26] = uninfected HeLa-ACE2 CC50, supplement summary
[27] = uninfected HeLa-ACE2 CC50, uninfected HeLa-ACE2 cells, average of triplicates

Row | Compound | Data Mode [1, 21] | EC50 [2, 23] [µM] | EC50 ([2]; HeLa-ACE2, read-out: qAC50) [µM] | AC50 [5] [µM] | EC50 [5, 24] [µM] | EC50 [5, 25] [µM] | Data Mode [6] | qAC50 [6] | CoV2 Efficacy (delta S0:Sinf) [9] | Data Mode [9] | S0 [9] | Sinf [9] | nHill [9] | CC50 at 24 h [10, 26] [µM] | CC50 at 24 h [10, 27] [µM] | half-life at 2 μM [11] [min] | microsomal CLint at 0.5 μM [14] [µL/min/mg] | solubility kinetic at 24 h ([15]; pH 2, aqueous buffer) [µg/mL] | solubility kinetic at 24 h ([15]; pH 7.4, aqueous buffer) [µg/mL] | ΔT m [16] | also measured
1 | COc1ccc(CNC(=O)C2CCN(C(C)c3cccc4ccccc34)C2)cc1 (centres unmarked) [Compound 17] | increasing (weakly active) | > 9.61 | > 9.61 | 6.48 | 6.4 ± 0.4 | 6.48 | decreasing | 2.965e-5 | 107.984 | decreasing | 7.984 | -100 | 2.951 | 29.6 | 29.6 ± 0.2 | 770 | – | – | – | – | S0 [1, 22]: -9.971; Sinf [1, 22]: 100; nHill [1, 22]: 1.233; HeLa-ACE2 Total Cell Efficacy (Sinf, note + or -) ([1]; infected HeLa-ACE2 total cell count): 1.233; AC50 ([2]; HeLa-ACE2, read-out: Log AC50 (converted)): > 9.61 µM; Papp at 5 h, 10 μM [3]: 0.61 ×10⁻⁶ cm/s; half-life at 0.5 μM ([4]; microsomes): 10.3 min; microsomal CLint at 0.5 μM ([4]; microsomes): 270 µL/min/mg; EC50 ([5]; Severe acute respiratory syndrome coronavirus 2, HeLa-ACE2, read-out: CoV-2 EC50, HeLa-ACE2, supplement summary): 6.49 µM; inhibition at 9.61 µM ([5]; Severe acute respiratory syndrome coronavirus 2, HeLa-ACE2, read-out: inhibition in the highest concentration tested): > 50%; S0 ([6]; curve fit): -3.377; Sinf ([6]; curve fit): -100; nHill ([6]; curve fit): 2.597; half-life at 0.5 μM ([7]; microsomes): 21.7 min; microsomal CLint at 0.5 μM ([7]; microsomes, pH 7.4, HLM CLint(mic), human liver microsomes): 128 µL/min/mg; solubility kinetic at 24 h ([8]; pH 2, aqueous buffer): > 24 µg/mL; solubility kinetic at 24 h ([8]; pH 7.4, aqueous buffer): > 19.9 µg/mL; AC50 at 24 h [10]: 29.6 µM; chromatographic logD [12]: 4.25; plasma stability remaining 60 min [13]: 73.01%
2 | C[C@@H](c1cccc2ccccc12)N1CCC(C(=O)NCC2CCCCC2)CC1 (racemic) [Compound 11] | inactive | > 9.61 | > 9.61 | – | > 9.61 | > 9.61 | inactive | > 3.984e-5 | – | inactive | – | – | – | > 39.8 | > 39.8 | 315 | 354 | > 23.1 | 6.15 (≈ 16.2 µM) | 0.90 ± 0.07 °C | Papp at 5 h, 10 μM [17]: 0.35 ×10⁻⁶ cm/s; chromatographic logD [18]: 4.8; half-life at 0.5 μM ([4]; liver microsomes): 7.84 min; microsomal CLint at 0.5 μM [19]: 209 µL/min/mg; half-life at 0.5 μM ([7]; liver microsomes): 13.2 min; plasma stability remaining 60 min ([13]; 2 μM): 47.10%
3 | NC[C@H]1O[C@H](O[C@H]2[C@H](O)[C@@H](O[C@H]3O[C@H](CO)[C@@H](O)[C@H](N)[C@H]3O)[C@H](N)C[C@@H]2N)[C@H](N)C[C@@H]1O [Tobramycin, reference compound] | – | – | – | – | – | – | – | – | – | – | – | – | – | – | – | – | – | – | – | – | inhibition of SARS-CoV-2 PL^pro [20]: ≥ 80%
4 | Cc1ccc(CNC(=O)C2CCN([C@H](C)c3cccc4ccccc34)CC2)cc1 [Compound 4] | inactive | > 9.61 | > 9.61 | > 9.61 | > 9.61 | > 9.61 | inactive | > 3.984e-5 | 103.282 | decreasing (weakly active) | 3.282 | -100 | 1.703 | > 39.8 | > 39.8 | 385 | 214 | > 24.2 | 8.09 (≈ 20.9 µM) | 7.98 °C and 7.9 ± 0.6 °C | Papp at 5 h, 10 μM [17]: 0.78 ×10⁻⁶ cm/s; chromatographic logD [18]: 4.56; half-life at 0.5 μM ([4]; liver microsomes): 13 min; microsomal CLint at 0.5 μM [19]: 78.4 µL/min/mg; half-life at 0.5 μM ([7]; liver microsomes): 35.4 min; plasma stability remaining 60 min ([13]; 2 μM): 58.47%
5 | Cc1ccc(CNC(=O)C2CCN([C@@H](C)c3cccc4ccccc34)CC2)cc1 (stereo in doubt) [Compound 5] | inactive | > 9.61 | > 9.61 | > 9.61 | > 9.61 | > 9.61 | inactive | > 3.984e-5 | 105.451 | decreasing (weakly active) | 5.451 | -100 | 2.548 | > 39.8 | > 39.8 | 239 | 292 | > 25 | 8.62 (≈ 22.3 µM) | 5.57 °C and 5.57 ± 0.09 °C | Papp at 5 h, 10 μM [17]: 0.67 ×10⁻⁶ cm/s; chromatographic logD [18]: 4.55; half-life at 0.5 μM ([4]; liver microsomes): 9.48 min; microsomal CLint at 0.5 μM [19]: 152 µL/min/mg; half-life at 0.5 μM ([7]; liver microsomes): 18.2 min; plasma stability remaining 60 min ([13]; 2 μM): 33.79%
